The values that follow come from publication PMC10223552 (Pharmaceuticals, 2023).

Values joined by “and” are separate entries in the source; they are usually repeats but may differ in a detail not shown here. Equal entries are not always repeated. Where two headings read alike, the source gives them in different places. A value given as a limit tells only on which side of the number the result lay.

One assay deals with T1, hH3R (Homo sapiens, UniProt Q9Y5N1).
T1 construct: expressed in transfected cells
The experiment in a line: biochemical. The format is binding. The procedure:
All newly synthesized compounds were evaluated as H3R antagonists/inverse agonists on the guinea pig ileum (gpH3R), stimulated electrically to induce contractions. The distinct affinity profile and species-dependent pharmacology of H3R ligands are known. […] Therefore, to compare species differences, all newly synthesized compounds were subjected to radioligand displacement assay in membrane fractions of HEK-293 cells stably expressing hH3R. […] Ex vivo assay for histamine H3R and H1R antagonists were measured on the isolated guinea pig ileum stimulated to contractions by histamine. The pA2-values were calculated according to Arunlakshana and Schild. The radioligand-displacement binding assay was performed in membrane fractions of HEK-293 cells stably expressing hH3R. Cell cultivation and membrane preparation was performed according to Kottke et al.. The Ki values were calculated from the IC50 values using the Cheng–Prusoff equation [37]. The statistical calculations were performed on –log(Ki). […] The inhibitory activities of novel ADS compounds were assessed in spectrophotometric Ellman’s assay using AChE from electric eel (eeAChE) and BuChE from horse serum (eqBuChE).
3.3 hH3R radioligand displacement binding assay.
The radioligand displacement binding assay was performed in membrane fractions of HEK-293 cells stably expressing hH3R. Cell cultivation and membrane preparation was performed according to Kottke et al. [T. Kottke, […]
radioligand displacement assay, radioactively labeled [3H]Nα-methylhistamine was used at a final concentration […]
The total assay volume was set to 200 µL. The compounds were tested in several appropriate concentrations between 100 µM and 0.1 nM. Pipetting was partly done by Freedom Evo® (Tecan).
The membrane fraction (20 […]
µg/well), test compounds and radiolabeled ligand were incubated for 90 minutes at 25 °C while shaking. The bound radioligand was separated from the free radioligand by filtration through GF/B filters pre-treated with 0.3 % (m/v) polyethyleneimine using a cell harvester. Radioactivity was determined by liquid scintillation counting using a MicroBeta® Trilux (Perkin Elmer). The data was obtained in duplicates in at least three independent experiments. Non-specific binding was subtracted from the raw data to calculate specific-binding values. The evaluation was performed with GraphPad Prism 6.1 (San Diego, CA, USA) using non-linear regression (one-site competition with a logarithmic scale). The Ki values were calculated from the IC50 values using the Cheng-Prusoff […]
equation. [C. […] The statistical calculations […]
were performed on –log(Ki).

The target of another assay is eqBuChE (Equus caballus, UniProt P81908). The experiment in a line: biochemical. The note with it: for inhibition at 10 µM: read-out: eqBuChE % inh. (10 µM) ± SD; for IC50: read-out: eqBuChE IC50 ± sem.
The test system of assay [1] is BJ normal skin fibroblast. Kind of assay: MTT cytotoxicity test, BJ normal fibroblasts. The class given is cell-based. To be noted: Homo sapiens, 48 h treatment. As for the experimental part: The studies were conducted on two breast cancer cell lines—MCF-7 (ER+PR+/HER2-negative) and MDA-MB-231 (ER/PR/HER2-negative) and human normal fibroblast cell line BJ. The cell lines were obtained from American Type Culture Collection (ATCC, Manassas, VA, USA) and were cultured at 37 °C in the presence of 5% CO2 in the atmosphere. The culture media (Eagle’s Minimum Essential Medium for MCF-7 and BJ, Leibovitz’s L-15 Medium for MDA-MB-231, Corning, NY, USA), was supplemented with 10% fetal bovine serum. The cell’s morphology was examined under a Nikon Eclipse Ti inverted phase contrast microscope (Nikon, Tokyo, Japan). The authenticity of tested cell lines was verified by short tandem repeat (STR) genotyping in the Department of Forensic Medicine (Medical University of Lublin, Lublin, Poland).
Cell viability based on metabolic activity was evaluated with the MTT colorimetric test based on the ability of viable cells to cause the transformation of tetrazolium salts MTT (3-[4,5-dimethylthiazol-2-yl]-2,5)diphenyltetrazolium bromide) into purple formazan, by cellular dehydrogenases. The cells were seeded into 96-well plates at a concentration of 2 × 10^5 cells/mL. Once 70–80% confluency was reached, tested compounds were added: ADS10310 and ADS1017 in concentrations ranging from 1 to 250 µM or DMSO as the vehicle in control cultures for the next 48 h (max. DMSO concentration <0.5%). Doxorubicin was used for comparison as the standard chemotherapeutic agent used in breast cancer treatment. After 48 h of incubation cell cultures were supplemented with 20 µL of 5 mg/mL MTT (Thermofisher, Waltham, MA, USA) stock in PBS (Corning, NY, USA), and the incubation was continued for 4 h at 37 °C. […] The solution absorbency was measured at 570 nm, using a PowerWave™ xs microplate spectrophotometer (BioTek Instruments, Winooski, VT, USA). […] IC50 values were determined using the AAT Bioquest IC50 calculator (AAT Bioquest, Inc. Quest Graph™ EC50 Calculator. https://www.aatbio.com/tools/ec50-calculator) (accessed on 6 September 2022).
(Tetrazolium dyes change colour on reduction, which living cells bring about.)

T1 sequence (Q9Y5N1 whole entry): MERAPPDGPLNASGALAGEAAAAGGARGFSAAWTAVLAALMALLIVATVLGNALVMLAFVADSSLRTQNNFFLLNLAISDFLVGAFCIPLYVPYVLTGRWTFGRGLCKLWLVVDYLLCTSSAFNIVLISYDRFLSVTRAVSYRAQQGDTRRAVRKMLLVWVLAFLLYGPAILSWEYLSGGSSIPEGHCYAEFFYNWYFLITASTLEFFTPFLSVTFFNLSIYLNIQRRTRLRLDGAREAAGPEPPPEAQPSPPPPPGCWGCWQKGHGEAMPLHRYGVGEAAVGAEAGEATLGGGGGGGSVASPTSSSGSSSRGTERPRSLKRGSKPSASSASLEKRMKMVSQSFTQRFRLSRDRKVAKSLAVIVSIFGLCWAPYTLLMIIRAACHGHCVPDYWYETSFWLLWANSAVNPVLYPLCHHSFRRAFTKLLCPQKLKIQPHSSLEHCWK
eqBuChE, sequence (P81908 whole entry): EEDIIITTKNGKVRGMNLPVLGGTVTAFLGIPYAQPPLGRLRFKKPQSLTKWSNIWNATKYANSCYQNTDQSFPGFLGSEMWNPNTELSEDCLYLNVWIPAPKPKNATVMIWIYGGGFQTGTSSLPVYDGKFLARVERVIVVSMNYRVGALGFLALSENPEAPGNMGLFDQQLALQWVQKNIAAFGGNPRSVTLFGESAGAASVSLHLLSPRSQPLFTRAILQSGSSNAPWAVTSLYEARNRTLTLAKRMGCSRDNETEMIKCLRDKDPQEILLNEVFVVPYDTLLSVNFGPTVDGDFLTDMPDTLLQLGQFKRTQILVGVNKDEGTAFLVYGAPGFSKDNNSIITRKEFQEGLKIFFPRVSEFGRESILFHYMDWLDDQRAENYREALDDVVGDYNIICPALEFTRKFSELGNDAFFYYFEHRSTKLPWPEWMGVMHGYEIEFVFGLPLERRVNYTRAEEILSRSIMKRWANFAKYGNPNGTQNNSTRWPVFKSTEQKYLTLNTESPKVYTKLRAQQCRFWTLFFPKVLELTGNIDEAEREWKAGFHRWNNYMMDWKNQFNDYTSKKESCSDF

By Ki is commonly meant the dissociation constant of the complex between target and ligand, obtained from inhibition or displacement. In general, IC50 refers to the concentration needed to halve the response being measured. Turning to `N=C(N)N(CCCCN1CCN(CCCCCCCOc2ccccc2)CC1)Cc1ccccc1` [ADS1017], the inhibition constant Ki on hH3R (mean ± sem, at least three independent experiments, read-out: hH3R -log(Ki) ± sem (converted)) was 0.513 µM. In addition, the inhibition at 10 µM at eqBuChE is 70.8 ± 0.6%. For the same compound, the half-inhibitory concentration (IC50) at eqBuChE worked out at 5.1 ± 0.1 µM; in assay [1] it was 39 µM.
As to `Cl.Cl.N=C(NCCCCc1ccc(Cl)cc1)NCCCCN1CCCCC1` [ADS10310], the inhibition constant (Ki) at hH3R (hH3R Ki) is < 0.2 µM and 0.127 µM. Further, at eqBuChE, the inhibition at 10 µM turned out to be 83.9 ± 0.1% and the concentration for half-maximal inhibition (IC50) came out at 1.7 ± 0.1 µM. In assay [1], this compound yielded a half-maximal inhibitory concentration (IC50) of 231 µM.
